Results on ten molecules are retold here after patent US20080058515A1, “Chemical Compounds” (priority 2003, published 2008).

Where only a bound is given, the exact number is not on record here.

This test deals with T1, Serum Glucocorticoid-regulated Kinase-1 (SGK-1) (Homo sapiens, UniProt O00141, S422D).
T1 construct: a truncated form of the human enzyme that included amino acids 61-431; 6xHis (N); made in house
T1 sequence (O00141 61-431 S422D): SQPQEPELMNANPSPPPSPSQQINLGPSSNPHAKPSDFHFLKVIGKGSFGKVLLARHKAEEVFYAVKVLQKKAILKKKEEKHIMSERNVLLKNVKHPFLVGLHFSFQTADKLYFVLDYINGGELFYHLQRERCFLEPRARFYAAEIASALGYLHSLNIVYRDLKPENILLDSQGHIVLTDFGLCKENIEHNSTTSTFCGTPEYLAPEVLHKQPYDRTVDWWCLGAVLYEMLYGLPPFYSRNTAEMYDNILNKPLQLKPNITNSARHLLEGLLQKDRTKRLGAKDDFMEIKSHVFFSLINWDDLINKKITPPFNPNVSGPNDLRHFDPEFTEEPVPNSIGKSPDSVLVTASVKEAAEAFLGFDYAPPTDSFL
The test is described as follows: SGK-1 Enzyme Assay (SGK1e), substrate phosphorylation, scintillation proximity. The test is classed as biochemical. The note with it: truncated human SGK-1 (aa 61-431, S422D), 10 μM ATP, Crosstide substrate. Here is the method: Compounds of the present invention were tested for Serum Glucocorticoid-regulated Kinase-1 (SGK-1) protein serine/threonine kinase inhibitory activity in substrate phosphorylation assays using enzyme purified from a baculovirus expression vector system. The recombinant baculovirus was made to express the intracellular domain of SGK-1 (GenBank accession number MD41091). The virus expressed a truncated form of the human enzyme that included amino acids 61-431. Serine422 was replaced with Aspartic acid to activate the enzyme, and 6 Histidine residues were added at the amino terminus to facilitate purification. The protein was purified using Ni-NTA agarose affinity chromatography. The peptide substrate was an N-terminal biotinylated sunthetic peptide named Crosstide (biotin-Ahx-GRPRTSSFAEG-OH), corresponding to the sequence in GSK3 surrounding the serine phosphorylated by MAPKAP Kinase-1/Rsk and p70 S6 Kinase.
The method measures the ability of the isolated enzyme to catalyze the transfer of the γ-phosphate from ATP onto serine/threonine residues in the biotinylated Crosstide. Reactions were performed in 96-well polystyrene round-bottom plates in a final volume of 30 uL. Reaction mixtures contained 62.5 mM HEPES (pH 7.4), 10 mM MgCl2, 0.1 mM EDTA, 0.0024% TWEEN-20, and 1 mM DTT (added fresh daily), 10 μM ATP, 0.2 μCi [[v-^33P] ATP per reaction, 4 μM Crosstide peptide substrate, and 1 nM SGK1 enzyme. Reactions were initiated by adding the indicated enzyme. The reaction was allowed to proceed for 2 hours, then terminated by the addition of 50 mM EDTA and quantified using a scintillation proximity assay procedure as described (McDonald, O. B., Antonsson, B., Arkinstal, S., Marshall, C. J., and Wood, E. R. (1999) Analytical Biochemistry, 268, 318-329).
Compounds under analysis were dissolved in Me2SO to 1 mM and serially diluted 1 to 3 with Me2SO through eleven columns of a 96 well plate. 1 uL of each concentration was transferred to the corresponding well of the assay plate. This created a final compound concentration range from 0.56 nM to 33.3 uM.
The data for dose responses were plotted as % Control calculated with the data reduction formula 100*(U1-C2)/(C1-C2) versus concentration of compound and fitted to the curve described by:
where Vmax is the upper asymptote and K is the IC50
Molecule `CCCN(C)CCOc1ccc(NC(=O)/C=C/c2n[nH]c3ccccc23)cc1OC` [Example 19, (2E)-3-(1H-indazol-3-yl)-N-(3-methoxy-4-{2-[methyl(propyl)amino]ethoxy}phenyl)-2-propenamide] returned a half-maximal inhibitory concentration (IC50) of under 1000 nM.
The molecule `COc1cc(NC(=O)/C=C/c2n[nH]c3ccccc23)ccc1OCCN(C(C)C)C(C)C` [Example 15, (2E)-N-[4-[2-(diisopropylamino)ethoxy]-3-methoxyphenyl]-3-(1H-indazol-3-yl)-2-propenamide] returned a 50% inhibitory concentration (IC50) of under 1000 nM.
In the case of `CC(C)CNC(=O)/C=C/c1n[nH]c2ccccc12` [Example 24, (2E)-3-(1H-indazol-3-yl)-N-isobutylprop-2-enamide] it was 1000 to 10000 nM.
The same measure for `O=C(/C=C/c1n[nH]c2ccccc12)Nc1ccc2ncsc2c1` [Example 1, (2E)-N-(1,3-benzothiazol-6-yl)-3-(1H-indazol-3-yl)-2-propenamide]: under 1000 nM.
For the molecule `CCN(Cc1ccncc1)C(=O)c1cccc(NC(=O)/C=C/c2n[nH]c3ccccc23)c1` [Example 41, N-ethyl-3-(((2E)-3-(1H-indazol-3-yl)prop-2-enoyl)amino)-N-(pyridin-4-ylmethyl)benzamide], the half-inhibitory concentration (IC50) is under 1000 nM.
The same measure for `O=C(/C=C/c1n[nH]c2ccccc12)N1CCC2(CC1)C(=O)NCN2c1ccccc1` [Example 30, 8-[(2E)-3-(1H-indazol-3-yl)prop-2-enoyl]-1-phenyl-1,3,8-triazaspiro[4.5]decan-4-one]: under 1000 nM; for `N#Cc1ccccc1NC(=O)/C=C/c1n[nH]c2ccccc12` [Example 3, (2E)-N-(2-cyanophenyl)-3-(1H-indazol-3-yl)-2-propenamide]: under 1000 nM.
`CCOC(=O)C1CCN(C(=O)/C=C/c2n[nH]c3ccccc23)CC1` [Example 27, Ethyl 1-[(2E)-3-(1H-indazol-3-yl)prop-2-enoyl]piperidine-4-carboxylate] yielded an IC50 of 1000 to 10000 nM.
In turn, `O=C(/C=C/c1n[nH]c2ccccc12)Nc1ccc(C(=O)NCCc2cccnc2)cc1` [Example 36, 4-(((2E)-3-(1H-indazol-3-yl)prop-2-enoyl)amino)-N-(2-pyridin-3-ylethyl)benzamide] showed an IC50 of under 1000 nM.
In turn, `O=C(/C=C/c1n[nH]c2ccccc12)Nc1cccc(C(=O)c2ccccc2)c1` [Example 12, (2E)-N-(3-benzoylphenyl)-3-(1H-indazol-3-yl)-2-propenamide] came in with an IC50 of under 1000 nM.
